The results in this text go back to the Biogen ADME set (Fang et al. 2023).

Converted amounts (≈) assume the structure as drawn. Some results are limits rather than exact numbers.

The conditions of the data set: for aqueous solubility: pH 6.8.

A word on the aqueous solubility: it is the dissolved amount per volume that the medium holds. High values mean much dissolved substance, low ones little dissolved substance. As to `C#CCN1CCC[C@H]1C(=O)Nc1cnn(-c2ncccn2)c1`, the MDR1-MDCK efflux ratio is 3.95; the intrinsic clearance, human liver microsomes was at most 4.74 mL/min/kg; the intrinsic clearance, rat liver microsomes was determined as 83.4 mL/min/kg; the aqueous solubility is 45.1 µg/mL (≈ 152 µM).
For `COc1ccc2nc(C)nc(NCc3ncc(C)o3)c2c1`, the MDR1-MDCK efflux ratio turned out to be 1.39; the intrinsic clearance, human liver microsomes came to 23.5 mL/min/kg; the intrinsic clearance, rat liver microsomes worked out at 296 mL/min/kg.
`O=C(C1CCCN(Cc2cc3c(cc2O)OCO3)C1)N1CCOCC1` (stereo unspecified): the MDR1-MDCK efflux ratio is 1.94; the intrinsic clearance, human liver microsomes turned out to be 5.4 mL/min/kg; the intrinsic clearance, rat liver microsomes came out at 52.6 mL/min/kg; the aqueous solubility was found to be 55.8 µg/mL (≈ 160 µM).
As for `CC(C)c1nc(O)c2nnn(C[C@@H]3CCCN(Cc4cccs4)C3)c2n1`, the MDR1-MDCK efflux ratio came out at 22.3; the intrinsic clearance, human liver microsomes was 32.1 mL/min/kg; the intrinsic clearance, rat liver microsomes stood at 999 mL/min/kg; the aqueous solubility turned out to be 49.1 µg/mL (≈ 132 µM).
For the compound `O=C(NCc1nc(-c2cnccn2)n[nH]1)C1Cc2ccccc2C1`, the MDR1-MDCK efflux ratio was 8.75; the intrinsic clearance, human liver microsomes was at most 4.74 mL/min/kg; the intrinsic clearance, rat liver microsomes is 19 mL/min/kg.
For `CC(C)Cn1c(=O)[nH]c(=O)c2c1nc1n2CCCCC1`, the MDR1-MDCK efflux ratio came to 3.54; the intrinsic clearance, human liver microsomes stood at 7.18 mL/min/kg; the intrinsic clearance, rat liver microsomes came to 28.2 mL/min/kg; the aqueous solubility was 62.7 µg/mL (≈ 227 µM).
For `Cc1cnn(C2CN(CC3(O)CCCCC3)C2)c1` the same measures were 0.488, 54.7 mL/min/kg, 1900 mL/min/kg and 32.6 µg/mL (≈ 131 µM).
On to `Cc1cc(C)c(NC(=O)CN(C)c2ccc(C#N)nc2)c(C)c1`, for which the MDR1-MDCK efflux ratio was 6.69; the intrinsic clearance, human liver microsomes turned out to be 14.4 mL/min/kg; the intrinsic clearance, rat liver microsomes was found to be 75.7 mL/min/kg.
As to `Cc1sc(-c2ccccn2)nc1-c1ccc(NC(=O)C(C)C)cc1`, the MDR1-MDCK efflux ratio worked out at 0.624; the intrinsic clearance, human liver microsomes came to 15.4 mL/min/kg; the intrinsic clearance, rat liver microsomes came out at 48.8 mL/min/kg; the aqueous solubility stood at 1.41 µg/mL (≈ 4.18 µM).
For `O=C(NCCN1CCC(c2ccccc2)CC1)c1ccc2ncsc2c1` the same measures were 1.31, 15.2 mL/min/kg, 108 mL/min/kg and 44 µg/mL (≈ 120 µM).
On to `CN(C)C(=O)c1cncc(N(C)CCN(C)C2CCCC2)n1`, for which the MDR1-MDCK efflux ratio was found to be 20.2; the intrinsic clearance, human liver microsomes is 6.5 mL/min/kg; the intrinsic clearance, rat liver microsomes came to 32.3 mL/min/kg.
Regarding `CC(C)C(=O)Nc1ncc(-c2ccccc2)s1`, the MDR1-MDCK efflux ratio turned out to be 0.393 and the aqueous solubility was found to be 0.55 µg/mL (≈ 2.23 µM).
In the case of `C/C(=C/COc1c2occc2cc2ccc(=O)oc12)CO`, the MDR1-MDCK efflux ratio was 0.662; the intrinsic clearance, human liver microsomes was found to be 18.3 mL/min/kg; the intrinsic clearance, rat liver microsomes was 442 mL/min/kg.
With `c1ccc(CO[C@@H]2CCC[C@H]2n2cc(-c3nccs3)nn2)cc1`, the MDR1-MDCK efflux ratio came to 0.658; the intrinsic clearance, human liver microsomes amounted to 63.2 mL/min/kg; the intrinsic clearance, rat liver microsomes is 3020 mL/min/kg; the aqueous solubility came out at 15.7 µg/mL (≈ 48 µM).
For the compound `Cc1ccc(-c2nc(CC(=O)NCCC(C)C)cs2)cc1`, the MDR1-MDCK efflux ratio came out at 0.529; the intrinsic clearance, human liver microsomes came to 464 mL/min/kg; the intrinsic clearance, rat liver microsomes stood at 6110 mL/min/kg; the aqueous solubility came to 8.17 µg/mL (≈ 27 µM).
As for `Brc1nnc(N2CCC(OC3CCCC3)CC2)s1`, the MDR1-MDCK efflux ratio came out at 0.582; the intrinsic clearance, human liver microsomes was found to be 77.3 mL/min/kg; the intrinsic clearance, rat liver microsomes is 3110 mL/min/kg.
For `CCCc1ncncc1C(=O)NCc1noc(C2CC2)n1` the same measures were 1.73, at most 4.74 mL/min/kg and 112 mL/min/kg.
Regarding `O=C(Nc1nc2c(s1)COc1ccccc1-2)c1cnc(Cl)c(Cl)c1`, the MDR1-MDCK efflux ratio amounted to 1.02; the intrinsic clearance, human liver microsomes is 33.8 mL/min/kg; the intrinsic clearance, rat liver microsomes turned out to be 279 mL/min/kg; the aqueous solubility worked out at 3.7 µg/mL (≈ 9.78 µM).
Turning to `CNC(=O)c1cccc(Oc2ncnc3c2CN(C)CC3)c1`, the MDR1-MDCK efflux ratio turned out to be 19.2; the intrinsic clearance, human liver microsomes is at most 4.74 mL/min/kg; the intrinsic clearance, rat liver microsomes is at most 10.7 mL/min/kg; the aqueous solubility is 46.9 µg/mL (≈ 157 µM).
For `CC(C)(C)c1nnnn1CC(=O)NC12CC3CC(CC(C3)C1)C2` the same measures were 0.776, 57.4 mL/min/kg, 518 mL/min/kg and 25.8 µg/mL (≈ 81.4 µM).
As for `Cc1ccccc1N(CC(=O)O)S(C)(=O)=O`, the aqueous solubility worked out at 44.7 µg/mL (≈ 184 µM).
In the case of `COc1cccc(-n2nc(C(=O)O)cc2-c2ccc(C3CCCCC3)c(Cl)c2)c1`, the MDR1-MDCK efflux ratio came out at 1.56; the intrinsic clearance, human liver microsomes is 7.78 mL/min/kg; the intrinsic clearance, rat liver microsomes was 32.5 mL/min/kg; the aqueous solubility was determined as 33.8 µg/mL (≈ 82.1 µM).
Take `CCN1CCN(S(=O)(=O)Cc2ccc(Cl)c(Cl)c2)CC1`: the MDR1-MDCK efflux ratio was 0.41; the fraction unbound, human plasma turned out to be 0.177; the fraction unbound, rat plasma came out at 0.118; the intrinsic clearance, human liver microsomes stood at 82.8 mL/min/kg. The compound also had an intrinsic clearance, rat liver microsomes of 1440 mL/min/kg and an aqueous solubility of 25.7 µg/mL (≈ 76.2 µM).
In the case of `COc1ccc(F)c(CN2CCC(Cc3noc(C)n3)CC2)c1`, the MDR1-MDCK efflux ratio worked out at 0.656; the intrinsic clearance, human liver microsomes amounted to 20.2 mL/min/kg; the intrinsic clearance, rat liver microsomes stood at 263 mL/min/kg; the aqueous solubility came out at 69.4 µg/mL (≈ 217 µM).
For `Cc1cccc(OC2CN(C(=O)Cn3c(C)nn(-c4ccccc4)c3=O)C2)c1` the same measures were 0.993, 13.5 mL/min/kg, 103 mL/min/kg and 5.11 µg/mL (≈ 13.5 µM).
As for `Cc1ccc(=O)n(CC2(O)CCN(Cc3ccc4ccccc4n3)CC2)n1`, the intrinsic clearance, human liver microsomes is at most 4.74 mL/min/kg and the intrinsic clearance, rat liver microsomes is 90.1 mL/min/kg.
Take `CC(C)(C)c1cnc(CN2CCC(=O)Nc3cc(F)ccc32)o1`: the MDR1-MDCK efflux ratio was 1.92; the intrinsic clearance, human liver microsomes amounted to 98.6 mL/min/kg; the intrinsic clearance, rat liver microsomes came to 950 mL/min/kg.
Take `CON(C)C(=O)c1cc2ccc(C(C)(C)C)cc2[nH]1`: the MDR1-MDCK efflux ratio worked out at 0.438; the intrinsic clearance, human liver microsomes is 55 mL/min/kg; the intrinsic clearance, rat liver microsomes was determined as 344 mL/min/kg; the aqueous solubility came out at 1.02 µg/mL (≈ 3.92 µM).
`COC(=O)C1=NOC2(CCN(CCC(C)(C)C)CC2)C1`: the MDR1-MDCK efflux ratio was determined as 0.474; the intrinsic clearance, human liver microsomes is 144 mL/min/kg; the intrinsic clearance, rat liver microsomes worked out at 301 mL/min/kg.
On to `CCc1nc(CN2C(=O)COc3ccc(F)cc32)cs1`, for which the MDR1-MDCK efflux ratio amounted to 0.688; the intrinsic clearance, human liver microsomes was 65.1 mL/min/kg; the intrinsic clearance, rat liver microsomes worked out at 1250 mL/min/kg; the aqueous solubility was 20.9 µg/mL (≈ 71.5 µM).
As for `CCc1nc2ccccc2n1CC(=O)Nc1cnc2ccccc2c1`, the intrinsic clearance, human liver microsomes worked out at 21.3 mL/min/kg and the intrinsic clearance, rat liver microsomes is 188 mL/min/kg.
For the compound `C[C@@H]1NC(=O)N(CCC2Cc3ccccc3C2)C1=O`, the MDR1-MDCK efflux ratio worked out at 0.771; the intrinsic clearance, human liver microsomes was at most 4.74 mL/min/kg; the intrinsic clearance, rat liver microsomes was determined as 193 mL/min/kg.
For `Cc1ccc(NC(=O)OCC(F)(F)F)cn1` the same measures were 0.584, at most 4.74 mL/min/kg and 35.2 mL/min/kg.
Consider `O=C(O)c1ccc(N2CCCC2)c(F)c1`, for which the MDR1-MDCK efflux ratio came to 0.865; the intrinsic clearance, human liver microsomes is at most 4.74 mL/min/kg; the intrinsic clearance, rat liver microsomes amounted to 14.4 mL/min/kg; the aqueous solubility is 27.3 µg/mL (≈ 130 µM).
For the compound `OC(CNCc1ccc(OCc2cccs2)cc1)c1ccccc1` (stereo unspecified), the aqueous solubility is 42.9 µg/mL (≈ 126 µM).
For the compound `CN(C)c1nc(N)nc(Sc2ccccc2)n1`, the MDR1-MDCK efflux ratio was 0.746; the intrinsic clearance, human liver microsomes is 108 mL/min/kg; the intrinsic clearance, rat liver microsomes turned out to be 642 mL/min/kg; the aqueous solubility came to 3.11 µg/mL (≈ 12.6 µM).
As to `CCn1c(=O)c2cc(OC)c(OC)cc2n(Cc2ccc(Cl)cc2)c1=O`, the aqueous solubility stood at 0.4 µg/mL (≈ 1.07 µM).
For the compound `c1ccc(-c2noc(NC3CC3)n2)cc1`, the MDR1-MDCK efflux ratio came out at 0.809; the intrinsic clearance, human liver microsomes came out at 83.2 mL/min/kg; the intrinsic clearance, rat liver microsomes amounted to 178 mL/min/kg; the aqueous solubility came out at 28.3 µg/mL (≈ 141 µM).
Compound `Cc1c(O)cccc1OCCN1CCOCC1` gave an intrinsic clearance, human liver microsomes of at most 4.74 mL/min/kg and an intrinsic clearance, rat liver microsomes of 53.7 mL/min/kg.
For `Cc1c(C(=O)NCc2cnc(N(C)C)n2C)sc2ccccc12`, the MDR1-MDCK efflux ratio came out at 5; the intrinsic clearance, human liver microsomes stood at 17.9 mL/min/kg; the intrinsic clearance, rat liver microsomes was found to be 318 mL/min/kg; the aqueous solubility was found to be 51 µg/mL (≈ 155 µM).
As to `NC1CCCC(C(=O)N2CCC(c3c[nH]c4ncccc34)CC2)C1` (stereo unspecified), the MDR1-MDCK efflux ratio was 1.5; the fraction unbound, human plasma came out at 0.566; the intrinsic clearance, human liver microsomes was at most 4.74 mL/min/kg.
Turning to `CN1CCNc2nc3ccccc3nc21`, the MDR1-MDCK efflux ratio was found to be 0.671; the intrinsic clearance, human liver microsomes stood at 74 mL/min/kg; the intrinsic clearance, rat liver microsomes came to 143 mL/min/kg.
With `CCNC(=O)N1CCc2nc3ccc(F)cn3c(=O)c2C1`, the MDR1-MDCK efflux ratio came to 10.3; the intrinsic clearance, human liver microsomes was at most 4.74 mL/min/kg; the intrinsic clearance, rat liver microsomes was at most 10.7 mL/min/kg; the aqueous solubility worked out at 57.7 µg/mL (≈ 199 µM).
As for `CCc1nnc2c3ccccc3nc(Nc3ccc(OC)cc3)n12`, the MDR1-MDCK efflux ratio worked out at 0.092 and the aqueous solubility is 0.14 µg/mL (≈ 0.438 µM).
On to `N#CCCN(C(=O)c1sccc1C#N)C12CC3CC(CC(C3)C1)C2`, for which the MDR1-MDCK efflux ratio was 1.16; the intrinsic clearance, human liver microsomes stood at 320 mL/min/kg; the intrinsic clearance, rat liver microsomes turned out to be 1600 mL/min/kg; the aqueous solubility amounted to 7.8 µg/mL (≈ 23 µM).
Regarding `Cn1c(=O)c2c(nc3n2CCN3Cc2c(F)cccc2Cl)n(C)c1=O`, the MDR1-MDCK efflux ratio worked out at 1.27; the intrinsic clearance, human liver microsomes is 11.9 mL/min/kg; the intrinsic clearance, rat liver microsomes came to 146 mL/min/kg; the aqueous solubility worked out at 5.17 µg/mL (≈ 14.2 µM).
Take `Nc1nc(N)c2c(OCC3CCN(Cc4c(Cl)cccc4Cl)CC3)cccc2n1`: the MDR1-MDCK efflux ratio is 0.816 and the aqueous solubility was found to be 0.4 µg/mL (≈ 0.925 µM).
